Experiment [1] has as its system Bacillus subtilis. Briefly: Antimicrobial activity against Bacillus subtilis assessed as growth inhibition after 24 hrs by two-fold serial dilution technique. The class given is functional, organism-based.
For experiment [2], the system named is Microsporum canis. Briefly: Antimicrobial activity against Microsporum canis assessed as growth inhibition after 24 hrs by two-fold serial dilution technique. In kind it is functional.
For experiment [3], the system named is Candida albicans. Briefly: Antimicrobial activity against Candida albicans assessed as growth inhibition after 24 hrs by two-fold serial dilution technique. In kind it is functional.
Experiment [4] relates to Staphylococcus aureus. Briefly: Antimicrobial activity against penicillin-resistant Staphylococcus aureus assessed as growth inhibition after 24 hrs by two-fold serial dilution technique. The class given is functional.
For experiment [5], the system named is Cryptococcus neoformans. Briefly: Antimicrobial activity against Cryptococcus neoformans assessed as growth inhibition after 24 hrs by two-fold serial dilution technique. The class given is functional.
The test system of experiment [6] is Agrobacterium tumefaciens. In words: Antimicrobial activity against Agrobacterium tumefaciens assessed as growth inhibition after 24 hrs by two-fold serial dilution technique. In kind it is functional.
In experiment [7] the test system is Escherichia coli. Briefly: Antimicrobial activity against Escherichia coli assessed as growth inhibition after 24 hrs by two-fold serial dilution technique. The class given is functional, organism-based.
The subject of experiment [8] is Rodentolepis nana. In words: Cestodicidal activity against Hymenolepis nana infected in rat at 250 mg/kg, po administered as single dose. The class given is functional, organism-based. Details: dose 250 mg/kg.
The test system of experiment [9] is Salmonella typhi. In words: Antimicrobial activity against Salmonella typhi assessed as growth inhibition after 24 hrs by two-fold serial dilution technique. The class given is functional, organism-based. To be noted: Salmonella enterica subsp. enterica serovar Typhi.
The test system of experiment [10] is Aspergillus niger. In words: Antimicrobial activity against Aspergillus niger assessed as growth inhibition after 24 hrs by two-fold serial dilution technique. The class given is functional.
Experiment [11] deals with Trichophyton mentagrophytes. In words: Antimicrobial activity against Trichophyton mentagrophytes assessed as growth inhibition after 24 hrs by two-fold serial dilution technique. In kind it is functional.
Experiment [12] relates to Escherichia coli. Briefly: Antimicrobial activity against Escherichia coli assessed as growth inhibition at 0.78 ug/ml after 24 hrs by two-fold serial dilution technique. The class given is functional, organism-based.
In experiment [13] the test system is Candida albicans. Briefly: Antimicrobial activity against Candida albicans assessed as growth inhibition at 0.39 ug/ml after 24 hrs by two-fold serial dilution technique. The class given is functional, organism-based.

Structures are written as SMILES. Converted amounts (≈) assume the structure as drawn. The source made the active and inactive calls. The rule behind the calls is not given here.

As to `Cc1cccc(Oc2ccc(NC(=O)c3cc(Cl)ccc3O)cc2[N+](=O)[O-])c1`, the “growth inhibition (GI)” value in experiment [1], in experiment [3], in [7] and in experiment [9] was “inactive” each time. In addition, the minimum inhibitory concentration (MIC) – broadly, the lowest concentration found to suppress growth – in experiment [2] was 0.78 µg/mL (≈ 1.96 µM); in experiment [4], 0.195 µg/mL (≈ 0.489 µM); in experiment [5] it was greater than 100 µg/mL; in experiment [6] it was greater than 100 µg/mL; in experiment [10] it was greater than 100 µg/mL; in [11] it was 1.56 µg/mL (≈ 3.91 µM). In addition, in experiment [8], the outcome was inactive.
As to `Cc1ccc(Oc2ccc(NC(=O)c3cc(Cl)ccc3O)cc2[N+](=O)[O-])cc1`, the “growth inhibition (GI)” value in experiment [1], in experiment [3], in experiment [7] and in experiment [9] was “inactive” each time. Further, the MIC is 0.78 µg/mL (≈ 1.96 µM) in experiment [2]; 0.39 µg/mL (≈ 0.978 µM) in experiment [4]; greater than 100 µg/mL in experiment [5]; greater than 100 µg/mL in experiment [6]; 6.25 µg/mL (≈ 15.7 µM) in [10]; 1.56 µg/mL (≈ 3.91 µM) in [11]. The outcome in experiment [8] was inactive.
`CCCCN(CCCC)c1ccc(NC(=O)c2cc(Cl)ccc2O)cc1[N+](=O)[O-]`: the “growth inhibition (GI)” value in [1], in experiment [3], in [7] and in experiment [9] was “inactive” each time. In addition, the MIC was 25 µg/mL (≈ 59.5 µM) in experiment [2]; greater than 100 µg/mL in experiment [4]; greater than 100 µg/mL in experiment [5]; greater than 100 µg/mL in experiment [6]; 25 µg/mL (≈ 59.5 µM) in [10]; greater than 100 µg/mL in experiment [11]. Besides, in experiment [8], the outcome was inactive.
As to `CN(C)[C@@H]1C(O)=C(C(N)=O)C(=O)[C@@]2(O)C(O)=C3C(=O)c4c(O)cccc4[C@@](C)(O)[C@H]3C[C@@H]12` [TETRACYCLINE], in [6], the MIC was 0.78 µg/mL (≈ 1.76 µM). Further, in experiment [12], the “growth inhibition (GI)” value was “Active”.
Turning to `O=C(Nc1ccc(Oc2ccc(Cl)cc2)c([N+](=O)[O-])c1)c1cc(Cl)ccc1O`, the “growth inhibition (GI)” value in [1], in experiment [3], in experiment [7] and in experiment [9] was “inactive” in each case. The MIC in experiment [2] is 0.78 µg/mL (≈ 1.86 µM); in experiment [4] it was 0.78 µg/mL (≈ 1.86 µM); in experiment [5], greater than 100 µg/mL; in experiment [6] it was 25 µg/mL (≈ 59.6 µM); in [10], 25 µg/mL (≈ 59.6 µM); in experiment [11] it was 1.56 µg/mL (≈ 3.72 µM). In experiment [8], the outcome was inactive.
As to `C[C@@H]1[C@H](O)[C@@H](C)/C=C/C=C/C=C/C=C/C=C/C=C/C=C/[C@H](O[C@@H]2O[C@H](C)[C@@H](O)[C@H](N)[C@@H]2O)C[C@@H]2O[C@](O)(C[C@@H](O)C[C@@H](O)[C@H](O)CC[C@@H](O)C[C@@H](O)CC(=O)O[C@H]1C)C[C@H](O)[C@H]2C(=O)O` [AMPHOTERICIN B], the MIC in [2] turned out to be 1.56 µg/mL (≈ 1.69 µM); in [5], 0.78 µg/mL (≈ 0.844 µM); in experiment [10] it was 12.5 µg/mL (≈ 13.5 µM); in experiment [11] it was 1.56 µg/mL (≈ 1.69 µM). Further, in [13], the “growth inhibition (GI)” value is “Active”.
`CCOc1ccc(NC(=O)c2cc(Cl)ccc2O)cc1[N+](=O)[O-]`: the “growth inhibition (GI)” value in experiment [1], in [3], in experiment [7] and in experiment [9] was “inactive” each time. Moreover, the minimal inhibitory concentration (MIC) in experiment [2], in experiment [4], in experiment [5], in experiment [6], in experiment [10] and in [11] was greater than 100 µg/mL in each case. Also, the result in experiment [8] was inactive.
In the case of `O=C(Nc1ccc(N2CCCC2)c([N+](=O)[O-])c1)c1cc(Cl)ccc1O`, the “growth inhibition (GI)” value in experiment [1], in [7] and in [9] was “inactive” throughout. In addition, the MIC in [2] was greater than 100 µg/mL; in experiment [3], 25 µg/mL (≈ 69.1 µM); in [4] it was 0.0975 µg/mL (≈ 0.269 µM); in experiment [5], 25 µg/mL (≈ 69.1 µM); in experiment [6], greater than 100 µg/mL; in experiment [10] it was 25 µg/mL (≈ 69.1 µM). For the same compound, in experiment [11], the MIC is greater than 100 µg/mL. The outcome in experiment [8] was inactive.

These data come from ChEMBL document CHEMBL3272279, “Synthesis of 5-chloro-3'-nitro-4'-substituted salicylanilides, a new series of anthelmintic and antimicrobial agents” (1977).
